# Experimental data from article PMC3003444 (Chemistry & biology, 2010).
# Read-outs that look alike come from different tables or passages of the source. Marks after values point to notes of the source that are not given here.
# What was measured:
# [1] = system: Staphylococcus epidermidis; assay: microbe, parasite or virus in culture; assay type: cell-based
# [2] = system: Staphylococcus haemolyticus; assay: microbe, parasite or virus in culture; assay type: cell-based
# Rhodococcus opacus = assay: microbe, parasite or virus in culture; assay type: cell-based
# [3] = system: Corynebacterium glutamicum; assay: microbe, parasite or virus in culture; assay type: cell-based
# Helicobacter pylori = assay: microbe, parasite or virus in culture; assay type: cell-based
# Yersinia pestis = assay: microbe, parasite or virus in culture; assay type: cell-based
# Chlamydia trachomatis = assay: microbe, parasite or virus in culture; assay type: cell-based
# Streptococcus pneumoniae = assay: microbe, parasite or virus in culture; assay type: cell-based
# Streptococcus pyogenes = assay: microbe, parasite or virus in culture; assay type: cell-based
# Lactococcus lactis = assay type: cell-based
# [4] = system: Corynebacterium efficiens; assay: microbe, parasite or virus in culture; assay type: cell-based
# Staphylococcus aureus = assay type: cell-based; conditions: S. aureus mutant, Pro^29 replaced by Ser
# Brevibacillus brevis = assay: microbe, parasite or virus in culture; assay type: cell-based
# Bacillus subtilis = assay: microbe, parasite or virus in culture; assay type: cell-based
# Streptococcus agalactiae = assay: microbe, parasite or virus in culture; assay type: cell-based
# Escherichia coli = assay: microbe, parasite or virus in culture; assay type: cell-based
# Pseudomonas aeruginosa = assay: microbe, parasite or virus in culture; assay type: cell-based
# Klebsiella pneumoniae = assay: microbe, parasite or virus in culture; assay type: cell-based
# Lactobacillus gasseri = assay: microbe, parasite or virus in culture; assay type: cell-based
# [5] = system: Lactobacillus acidophilus; assay: microbe, parasite or virus in culture; assay type: cell-based
# Lactobacillus plantarum = assay: microbe, parasite or virus in culture; assay type: cell-based; conditions: Lactiplantibacillus plantarum
# Clostridium difficile = assay: microbe, parasite or virus in culture; assay type: cell-based; conditions: Clostridioides difficile
# Clostridium bolteae = assay: microbe, parasite or virus in culture; assay type: cell-based; conditions: Enterocloster bolteae
# Clostridium perfringens = assay: microbe, parasite or virus in culture; assay type: cell-based
# Bacteroides fragilis = assay: microbe, parasite or virus in culture; assay type: cell-based
# Prevotella copris = assay: microbe, parasite or virus in culture; assay type: cell-based
# Lactobacillales = assay: organism not typed; assay type: cell-based
# [6] = system: Clostridia and Bacteriodetes; assay: MIC, Clostridia and Bacteriodetes; assay type: cell-based
# [7] = system: E. coli strains harboring the indicated amino acid at SPase residue 84
# Enterococcus faecalis = conditions: cited from earlier work
# [8] = system: E. coli strains harboring the indicated amino acid at SPase residue 84; assay: MIC for E. coli strains with mutant SPase residue 84; conditions: for MIC: Escherichia coli
structure (smiles),measurement,setting,value
CCCCCCCCCCCCCCCC(=O)N(C)[C@H](CO)C(=O)N[C@H](C)C(=O)NCC(=O)N(C)[C@@H]1C(=O)N[C@@H](C)C(=O)N[C@H](C(=O)O)Cc2ccc(O)c(c2)-c2cc1ccc2O [arylomycin C16],MIC,[1]; Staphylococcus epidermidis,0.25 µg/mL
same,elevated MIC compared to the wild type strain,"[1]; resistant mutants (remainder), SpsIB Ser to Pro at position 31",greater than 256 fold
same,elevated MIC compared to the wild type strain,"[1]; resistant mutants (~75%), SpsIB Ser to Pro at position 29",32 fold
same,MIC,[2],2 µg/mL
same,MIC,Rhodococcus opacus,2 µg/mL
same,MIC,[3],2 µg/mL
same,MIC,Helicobacter pylori,4 µg/mL
same,MIC,Yersinia pestis,4 µg/mL
same,MIC,Chlamydia trachomatis,6 µg/mL
same,MIC,Streptococcus pneumoniae,16 µg/mL
same,MIC,Streptococcus pyogenes,16 µg/mL
same,MIC,Lactococcus lactis,"16, >128 ^a μg/ml"
same,MIC,[4],> 64 µg/mL
same,sensitivity of Pro to Ser SPase mutant strain,Staphylococcus aureus,high degree of sensitivity
same,MIC,Brevibacillus brevis,> 64 µg/mL
same,MIC,Bacillus subtilis,> 128 µg/mL
same,MIC,Streptococcus agalactiae,> 128 µg/mL
same,MIC,Escherichia coli,> 128 µg/mL
same,decrease of MIC on permeabilizing with polymyxin B nonapeptide,Pseudomonas aeruginosa; P. aeruginosa Pro to Ser mutant,≤ 4 fold
same,sensitivity of Pro to Ser SPase mutant strain,"Pseudomonas aeruginosa; P. aeruginosa mutant, Pro^84 replaced by Ser",high degree of sensitivity
same,MIC,Pseudomonas aeruginosa; Pseudomonas aeruginosa,> 128 µg/mL
same,MIC,Klebsiella pneumoniae,> 128 µg/mL
same,MIC,Lactobacillus gasseri,> 128 µg/mL
same,MIC,[5],> 128 µg/mL
same,MIC,Lactobacillus plantarum,> 128 µg/mL
same,MIC,Clostridium difficile,> 16 µg/mL
same,MIC,Clostridium bolteae,> 16 µg/mL
same,MIC,Clostridium perfringens,> 16 µg/mL
same,MIC,Bacteroides fragilis,> 16 µg/mL
same,MIC,Prevotella copris,> 16 µg/mL
same,MIC,Lactobacillales,> 64 µg/mL
same,MIC,[6],> 16 µg/mL
same,decrease of MIC on permeabilizing with polymyxin B nonapeptide,[7],≤ 4 fold
same,MIC,Enterococcus faecalis,>64 ^b μg/ml
same,sensitivity of Pro to Ser SPase mutant strain,"[8]; E. coli mutant, Pro^84 replaced by Ser",high degree of sensitivity
same,MIC,[8]; His at SPase residue 84 (temperature sensitive phenotype),4 µg/mL
same,MIC,[8]; Phe at SPase residue 84 (temperature sensitive phenotype),2 µg/mL
same,MIC,"[8]; Pro at SPase residue 84, detection limit 256 μg/ml",> 256 µg/mL
same,MIC,"[8]; read-out: MICs, all of the other amino acids (not Pro) at SPase residue 84",≤ 16 µg/mL
